Laboratory results: publication PMC2932999 (Journal of Medicinal Chemistry, 2010)

What was measured:
[1] = target: E197 Perth NA (B/Perth/211/2001 D197E mutant neuraminidase) (Influenza B virus, UniProt Q3S340, D197E); format: biochemical, influenza B virus B/Perth/211/2001; conditions: read-out: Km for MUNANA
[2] = target: N197 Yamagata NA (B/Yamagata/186/05 D197N mutant neuraminidase) (Influenza B virus, UniProt Q38G88, D197N); format: biochemical, influenza B virus B/Yamagata/186/05; conditions: read-out: Km for MUNANA
[3] = tested on: mutant NAs (B/Perth E197 and B/Yamagata N197); format: biochemical, influenza B virus

CC(=O)N[C@H]1[C@H]([C@H](O)[C@H](O)CO)OC(Oc2ccc3c(C)cc(=O)oc3c2)(C(=O)O)C[C@@H]1O (stereo partly shown) [MUNANA, 4-methylumbelliferyl-N-acetylneuraminic acid]
Km [1]: 12.1 ± 3.7 µM
Km [2]: 18.8 ± 4.5 µM

CCC(CC)[C@H](NC(C)=O)[C@@H]1[C@H](O)[C@@H](C(=O)O)C[C@H]1NC(=N)N [compound 3, peramivir]
slow binding of inhibitor [3]: loss of slow binding

O=C(O)C1(F)O[C@H]([C@H](O)[C@H](O)CO)[C@H](O)[C@@H](O)C1F (stereo partly drawn) [compound 4, 2,3-difluoro-2-keto-3-deoxy-D-glycero-D-galactononulosonic acid]
resistance of mutant NAs compared to D197 wild type NA [3]: no resistance
